Experimental data published in ChEMBL document CHEMBL1121659 (J Med Chem, 1981).
Calls of active or inactive are those of the source. No cut-off for these calls is given here.

Experiments:
Mus musculus [1] = assay: Compound was evaluated for the dose required for protection against scMET-induced seizures after 4 hours of intraperitoneal administration at the doses< = 0.77-0.90 mM/kg; Inactive; format: functional, organism-based
Mus musculus [2] = assay: Compound was evaluated for the neuro toxicity up to 4 hours after doses of <=300 mg/kg administered intraperitoneally; No toxicity; format: organism-based; settings: in vivo, ip
Mus musculus [3] = assay: Compound was evaluated for the dose required for protection against MES-induced seizures after 4 hours of intraperitoneal administration; format: functional
Mus musculus [4] = assay: Compound was evaluated for the dose required for protection against scMET-induced seizures after 4 hours of intraperitoneal administration; Inactive; format: functional, organism-based
Mus musculus [5] = assay: Compound was evaluated for the dose required for protection against MES-induced seizures after 4 hours of intraperitoneal administration; Inactive; format: functional, organism-based

Structure (SMILES) | Activity (Mus musculus [1]) | Neurotoxicity (Mus musculus [2]) | Activity (Mus musculus [3]) | Activity (Mus musculus [4]) | Activity (Mus musculus [5])
O=C1NC(=O)C(c2ccccc2)(c2cccc(C(F)(F)F)c2)N1 (stereo unspecified) | inactive | No toxicity | 0.31 mmol/kg |  | 
Cc1cccc(C2(c3ccc(C(F)(F)F)cc3)NC(=O)NC2=O)c1 (stereo unspecified) |  | No toxicity |  | inactive | inactive
